Legend:
[1] = system: fecal microbiota from patients with clinically documented Auto-brewery Syndrome; experiment: Bioreactor cultures of fecal microbiota, ethanol production (ABS patients); format: cell-based, human; settings: 24 hours
Procedure: (§1) 100 mg of stool collected from patients during flare and remission and from their household partners was cultured in bioreactor cultures which consisted of 10 mL of Luria Broth (LB) media supplemented with 2 mM glucose and 2 mM cysteine in anaerobic conditions using hungate tubes. This concentration of glucose was chosen to emulate physiologic glucose concentrations in the intestine. Bioreactor cultures were untreated or treated with 0.05% dimethyl sulfoxide (DMSO, vehicle), 10 μg/mL amphotericin B, or 100 μg/mL chloramphenicol. To emulate supraphysiologic concentrations of glucose in the GI tract, patient microbiota was also cultured in LB media supplemented with 100 mM and 200 mM of glucose anaerobically using hungate tubes. Samples were collected at 0, 6, and 24 hours of culturing and ethanol concentration was assessed by high-performance liquid chromatography (HPLC) using a 1260 Infinity IILC system (Agilent, Santa Clara, CA, USA) equipped with an HPX-87H (Biorad, Hercules, CA, USA) or by using an enzyme-based kit (Abcam, in less than 20% of samples, low limit of detection 50 ng/dL).

[2] = system: fecal microbiota from household partners; experiment: Bioreactor cultures of fecal microbiota, ethanol production (household partners); format: cell-based, human; settings: household partner samples, 24 hours; 10 μg/mL amphotericin B or 100 μg/mL chloramphenicol
Procedure: as §1

[3] = samples from ABS patients, compared with DMSO vehicle control, 100 μg/mL chloramphenicol or 10 μg/mL amphotericin B

Compound	ethanol production in bioreactor cultures [1, 3]	ethanol production in bioreactor cultures ([1]; three ABS patient samples during a flare, 10 μg/mL amphotericin B)	ethanol production in bioreactor cultures [2]
C[C@@H]1[C@H](O)[C@@H](C)/C=C/C=C/C=C/C=C/C=C/C=C/C=C/[C@H](O[C@@H]2O[C@H](C)[C@@H](O)[C@H](N)[C@@H]2O)C[C@@H]2O[C@](O)(C[C@@H](O)C[C@@H](O)[C@H](O)CC[C@@H](O)C[C@@H](O)CC(=O)O[C@H]1C)C[C@H](O)[C@H]2C(=O)O [amphotericin B]	did not have a significant effect	partially reduced	No significant difference
O=C(N[C@H](CO)[C@H](O)c1ccc([N+](=O)[O-])cc1)C(Cl)Cl [chloramphenicol]	significantly decreased		No significant difference
